The test system of the assay is total cLP cells from WT mice. In words: Co-culture of total cLP cells with Lactobacillus strains, gene expression. It is filed as cell-based, mouse. Particulars: 1×10^5 cLP cells with 1×10^6 CFU, 12 h. The procedure:
FIG. 7C: 1×10^5 total cLP cells from WT mice were co-cultured with 1×10^6 CFU (/well) L. murinus, L. animalis, L. salivarius, L. johnsonii or L. reuteri for 12 h. Cytokine gene expression was determined by real-time RT-PCR. Data in (FIGS. 7A-C) are representative of two independent experiments.
Total RNA was extracted with Mammalian Total RNA Miniprep kit (Sigma-Aldrich, St. Louis, U.S.) according to the manufacturer's instructions. RNA was denatured in the presence of an oligo dT primer and then reverse transcribed with the High Capacity cDNA Reverse Transcription Kit (Applied Biosystems, San Francisco, U.S.). Quantitative real-time RT-PCRs were performed with a SYBR Green qPCR kit (Carlsbad, U.S.) and an iCycler system (Bio-Rad, Hercules, U.S.) with the sets of primers described in Table 1, and the expression of each mRNA encoding cytokine was normalized with gapdh expression level.

For Lactobacillus reuteri, the “expression of these genes (Tgfb, Il10, Foxp3, Rorc)” value is given as “did not modify”.

The values above are taken from patent publication US9738731B2, “Lactic acid bacterium growth enhancer, regulatory T-cell number increasing agent, method of enhancing growth of lactic acid bacterium, method of increasing number of regulatory T-cells, method of evaluating regulatory T-cell number increasing effect, and method of evaluating lactic acid growth …” (TOKYO UNIVERSITY OF SCIENCE FOUNDATION, priority 2013, dated 2017).
